According to the NIST ThermoML archive (doi:10.1021/je800101v):

Test: xn = mol fraction of the nth substance listed
Conditions: Ring tensiometer

CCCCCCCO [heptan-1-ol] + OCCO
surface tension liquid-gas [mN/m]
Conditions	298.15 K	303.15 K	308.15 K	313.15 K	318.15 K
x1 = 0.0559	29.24	29.16	28.96	28.78	28.64
x1 = 0.1059	27.73	28.02	27.88	27.71	27.55
x1 = 0.1508	27.18	27.66	27.55	27.42	27.28
x1 = 0.1914	27.05	27.54	27.21	27.06	26.91
x1 = 0.2512	26.93	27.36	26.98	26.81	26.67
x1 = 0.3027	26.78	27.2	26.84	26.71	26.57
x1 = 0.3559	26.67	27.07	26.69	26.53	26.35
x1 = 0.4085	26.57	26.89	26.65	26.42	26.28
x1 = 0.4532	26.41	26.77	26.57	26.32	26.16
x1 = 0.4966	26.32	26.67	26.42	26.23	26.07
x1 = 0.5502	26.25	26.6	26.24	26.07	25.91
x1 = 0.5999	26.17	26.48	26.12	25.92	25.78
x1 = 0.6369	26	26.39	26.09	25.83	25.65
x1 = 0.6928	26.08	26.31	26.01	25.68	25.52
x1 = 0.7246	26.01	26.25	25.91	25.62	25.48
x1 = 0.7978	25.92	26.18	25.85	25.52	25.37
x1 = 0.8403	25.83	26.12	25.78	25.51	25.31
x1 = 0.8875	25.71	26.07	25.68	25.45	25.21
x1 = 0.9404	25.62	26.02	25.62	25.45	25.14

CCCCCO [pentan-1-ol] + OCCO
surface tension liquid-gas [mN/m]
Conditions	298.15 K	303.15 K	308.15 K	313.15 K	318.15 K
x1 = 0.0488	35.01	34.4	33.65	33.18	32.85
x1 = 0.0931	32.1	30.89	30.71	30.51	30.37
x1 = 0.1523	29.93	29.14	29.25	29.05	28.87
x1 = 0.2043	29.26	28.56	28.41	28.27	28.09
x1 = 0.2502	28.35	27.94	27.81	27.67	27.51
x1 = 0.2912	28.04	27.65	27.51	27.35	27.17
x1 = 0.3503	27.01	27.05	26.91	26.8	26.68
x1 = 0.4094	27.39	26.62	26.48	26.31	26.18
x1 = 0.4586	26.71	26.19	25.98	25.82	25.69
x1 = 0.5003	26.75	25.77	25.61	25.43	25.27
x1 = 0.552	26.53	25.39	25.21	25.02	24.91
x1 = 0.5982	25.71	25.15	24.98	24.81	24.68
x1 = 0.6425	26.32	24.96	24.79	24.67	24.53
x1 = 0.6979	26.21	24.75	24.57	24.41	24.25
x1 = 0.7197	26.12	24.63	24.51	24.37	24.19
x1 = 0.7739	25.98	24.35	24.18	23.98	23.82
x1 = 0.837	24.89	24.23	24.15	23.92	23.78
x1 = 0.9113	25.45	24.13	24	23.81	23.65
x1 = 0.9536	25.25	24.02	23.89	23.75	23.61
